Data reported in PubChem BioAssay AID1963986 (Molecular Pharmacology Branch, DTP, NCI, 2024).

System: 171881-019-R-J1-PDC tumor spheroid viability
Experiment: Anticancer human tumor 171881-019-R-J1-PDC patient-derived invasive breast carcinoma cell line growth inhibition [PI3K]
Conditions: spheroids with HUVEC and MSC; for viability, T/C: stronger effect = lower value
Outline: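 Complex 3D spheroids (cancer cells + endothelial HUVEC + mesenchymal stem cells); drug pairs of targeted agent x inavolisib/alpelisib/duvelisib/copanlisib; half-log series from ~Cmax, max 10 microM if Cmax unknown; endpoint viability.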

[1] = curve of first compound, second compound 0.00316 µM
[2] = curve of first compound, second compound 0.01 µM
[3] = curve of first compound, second compound 0.0316 µM
[4] = curve of first compound, second compound 0.1 µM
[5] = curve of first compound, second compound 0.316 µM
[6] = curve of first compound, second compound 1 µM
[7] = second compound 0.00316 µM, first compound 0.0316 µM
[8] = second compound 0.00316 µM, first compound 0.1 µM
[9] = second compound 0.00316 µM, first compound 0.316 µM
[10] = second compound 0.00316 µM, first compound 1 µM
[11] = second compound 0.00316 µM, first compound 3.16 µM
[12] = second compound 0.00316 µM, first compound 10 µM
[13] = second compound 0.01 µM, first compound 0.0316 µM
[14] = second compound 0.01 µM, first compound 0.1 µM
[15] = second compound 0.01 µM, first compound 0.316 µM
[16] = second compound 0.01 µM, first compound 1 µM
[17] = second compound 0.01 µM, first compound 3.16 µM
[18] = second compound 0.01 µM, first compound 10 µM
[19] = second compound 0.0316 µM, first compound 0.0316 µM
[20] = second compound 0.0316 µM, first compound 0.1 µM
[21] = second compound 0.0316 µM, first compound 0.316 µM
[22] = second compound 0.0316 µM, first compound 1 µM
[23] = second compound 0.0316 µM, first compound 3.16 µM
[24] = second compound 0.0316 µM, first compound 10 µM
[25] = second compound 0.1 µM, first compound 0.0316 µM
[26] = second compound 0.1 µM, first compound 0.1 µM
[27] = second compound 0.1 µM, first compound 0.316 µM
[28] = second compound 0.1 µM, first compound 1 µM
[29] = second compound 0.1 µM, first compound 3.16 µM
[30] = second compound 0.1 µM, first compound 10 µM
[31] = second compound 0.316 µM, first compound 0.0316 µM
[32] = second compound 0.316 µM, first compound 0.1 µM
[33] = second compound 0.316 µM, first compound 0.316 µM
[34] = second compound 0.316 µM, first compound 1 µM
[35] = second compound 0.316 µM, first compound 3.16 µM
[36] = second compound 0.316 µM, first compound 10 µM
[37] = second compound 1 µM, first compound 0.0316 µM
[38] = second compound 1 µM, first compound 0.1 µM
[39] = second compound 1 µM, first compound 0.316 µM
[40] = second compound 1 µM, first compound 1 µM
[41] = second compound 1 µM, first compound 3.16 µM
[42] = second compound 1 µM, first compound 10 µM
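Note: spheroids exposed to compound for 7 days before viability read.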
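Throughout, for viability, T/C: 100% = DMSO vehicle-treated spheroids.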

With `C[C@@H](NC(=O)c1ncnc(N)c1Cl)c1ncc(C(=O)Nc2cc(C(F)(F)F)c(Cl)cn2)s1` + COc1c(OCCCN2CCOCC2)ccc2c3n(c(=NC(=O)c4cnc(N)nc4)nc12)CCN3 the IC50 [1] was 2360 nM, the IC50 [2] was 234 nM and the IC50 [3] was < 31.6 nM. The IC50 [4] was < 31.6 nM, the IC50 [5] was < 31.6 nM and the IC50 [6] was < 31.6 nM. The viability, T/C [7] was 62.5%, the viability, T/C [8] was 78.9% and the viability, T/C [9] was 67.5%. For the same molecule, the viability, T/C [10] was 62.2%, the viability, T/C [11] was 45.9% and the viability, T/C [12] was 27.2%. For the same molecule, the viability, T/C [13] was 50.9%, the viability, T/C [14] was 49.9% and the viability, T/C [15] was 51.3%. For the same molecule, the viability, T/C [16] was 43.4%, the viability, T/C [17] was 29.9% and the viability, T/C [18] was 17.9%. The viability, T/C [19] was 27.5%, the viability, T/C [20] was 26.9% and the viability, T/C [21] was 26%. The viability, T/C [22] was 20.8%, the viability, T/C [23] was 16% and the viability, T/C [24] was 7.51%. It also gave a viability, T/C [25] of 9.3%, a viability, T/C [26] of 8.92% and a viability, T/C [27] of 5.88%. For the same molecule, the viability, T/C [28] was 7.2%, the viability, T/C [29] was 4.61% and the viability, T/C [30] was 2.13%. The viability, T/C [31] was 2.53%, the viability, T/C [32] was 2.04% and the viability, T/C [33] was 2.28%. It also gave a viability, T/C [34] of 2.25%, a viability, T/C [35] of 1.53% and a viability, T/C [36] of 1.06%. It also gave a viability, T/C [37] of 1.22%, a viability, T/C [38] of 1.54% and a viability, T/C [39] of 1.62%. The viability, T/C [40] was 1.3%, the viability, T/C [41] was 0.85% and the viability, T/C [42] was 1.04%.
Work on `C#Cc1c(F)ccc2cc(O)cc(-c3ncc4c(N5CC6CCC(C5)N6)nc(OCC56CCCN5CC(F)C6)nc4c3F)c12` (stereo not given) + CC(Nc1ncnc2nc[nH]c12)c1cc2cccc(Cl)c2c(=O)n1-c1ccccc1 yielded an IC50 [3] of 562 nM, an IC50 [4] of 655 nM and an IC50 [5] of 440 nM. For the same molecule, the IC50 [6] was 314 nM, the IC50 (curve of first compound, second compound 3.16 µM) was 108 nM and the IC50 (curve of first compound, second compound 10 µM) was < 31.6 nM. For the same molecule, the viability, T/C [19] was 89.6%, the viability, T/C [20] was 78.5% and the viability, T/C [21] was 54%. The viability, T/C [22] was 44.5%, the viability, T/C [23] was 35.7% and the viability, T/C [24] was 29.4%. The viability, T/C [25] was 78.6%, the viability, T/C [26] was 80.1% and the viability, T/C [27] was 57%. The viability, T/C [28] was 43.9%, the viability, T/C [29] was 34.7% and the viability, T/C [30] was 24.3%. For the same molecule, the viability, T/C [31] was 83.3%, the viability, T/C [32] was 71% and the viability, T/C [33] was 51.6%. The viability, T/C [34] was 41.8%, the viability, T/C [35] was 29.7% and the viability, T/C [36] was 23.2%. The viability, T/C [37] was 76%, the viability, T/C [38] was 68.8% and the viability, T/C [39] was 47.9%. The viability, T/C [40] was 34.3%, the viability, T/C [41] was 26.6% and the viability, T/C [42] was 19.7%. It also gave a viability, T/C (second compound 3.16 µM, first compound 0.0316 µM) of 72.2%, a viability, T/C (second compound 3.16 µM, first compound 0.1 µM) of 50.1% and a viability, T/C (second compound 3.16 µM, first compound 0.316 µM) of 37.1%. It also gave a viability, T/C (second compound 3.16 µM, first compound 1 µM) of 23.9%, a viability, T/C (second compound 3.16 µM, first compound 3.16 µM) of 18.2% and a viability, T/C (second compound 3.16 µM, first compound 10 µM) of 13.4%. It also gave a viability, T/C (second compound 10 µM, first compound 0.0316 µM) of 49.8%, a viability, T/C (second compound 10 µM, first compound 0.1 µM) of 32.6% and a viability, T/C (second compound 10 µM, first compound 0.316 µM) of 21.5%. It also gave a viability, T/C (second compound 10 µM, first compound 1 µM) of 16.9%, a viability, T/C (second compound 10 µM, first compound 3.16 µM) of 10.3% and a viability, T/C (second compound 10 µM, first compound 10 µM) of 6.78%.
With `CC(Cn1ccc(-c2ccc(C#N)c(Cl)c2)n1)NC(=O)c1cc(C(C)O)[nH]n1` (stereo not given) + CC(Nc1ccc2c(c1)OCCn1cc(N3C(=O)OCC3C(F)F)nc1-2)C(N)=O the IC50 [1] was > 10000 nM, the IC50 [2] was > 10000 nM and the IC50 [3] was 4210 nM. For the same molecule, the IC50 [4] was < 31.6 nM, the IC50 [5] was < 31.6 nM and the IC50 [6] was < 31.6 nM. It also gave a viability, T/C [7] of 74.5%, a viability, T/C [8] of 85% and a viability, T/C [9] of 92%. The viability, T/C [10] was 93.9%, the viability, T/C [11] was 88.5% and the viability, T/C [12] was 54.3%. The viability, T/C [13] was 75.1%, the viability, T/C [14] was 80.9% and the viability, T/C [15] was 78.6%. For the same molecule, the viability, T/C [16] was 80.5%, the viability, T/C [17] was 83.4% and the viability, T/C [18] was 57.7%. The viability, T/C [19] was 50.2%, the viability, T/C [20] was 57.4% and the viability, T/C [21] was 54.4%. For the same molecule, the viability, T/C [22] was 53.7%, the viability, T/C [23] was 59.2% and the viability, T/C [24] was 35.1%. The viability, T/C [25] was 41.1%, the viability, T/C [26] was 36.2% and the viability, T/C [27] was 38.5%. The viability, T/C [28] was 39.8%, the viability, T/C [29] was 39% and the viability, T/C [30] was 27.3%. For the same molecule, the viability, T/C [31] was 26.7%, the viability, T/C [32] was 26.5% and the viability, T/C [33] was 25.8%. The viability, T/C [34] was 27%, the viability, T/C [35] was 25.8% and the viability, T/C [36] was 19.4%. It also gave a viability, T/C [37] of 19.6%, a viability, T/C [38] of 20.6% and a viability, T/C [39] of 19.7%. It also gave a viability, T/C [40] of 20.8%, a viability, T/C [41] of 19.1% and a viability, T/C [42] of 14.3%.
For `C#Cc1c(F)ccc2cc(O)cc(-c3ncc4c(N5CC6CCC(C5)N6)nc(OCC56CCCN5CC(F)C6)nc4c3F)c12` (stereo not given), the viability, T/C (compound 0.0316 µM) was 86.7% [middle of 4 runs], the viability, T/C (compound 0.1 µM) was 70.6% [middle of 4 runs] and the viability, T/C (compound 0.316 µM) was 53.7% [middle of 4 runs]. The viability, T/C (compound 1 µM) was 40.4% [middle of 4 runs], the viability, T/C (compound 3.16 µM) was 35.4% [middle of 4 runs] and the viability, T/C (compound 10 µM) was 27.9% [middle of 4 runs]. The IC50 (curve of compound) was 425 nM [middle of 4 runs].
With `Cc1nc(NC(=O)N2CCCC2C(N)=O)sc1-c1ccnc(C(C)(C)C(F)(F)F)c1` (stereo not given) the viability, T/C (compound 0.0316 µM) was 89.2% [middle of 8 runs], the viability, T/C (compound 0.1 µM) was 86.3% [middle of 8 runs] and the viability, T/C (compound 0.316 µM) was 57.4% [middle of 8 runs]. The viability, T/C (compound 1 µM) was 33.8% [middle of 8 runs], the viability, T/C (compound 3.16 µM) was 14.5% [middle of 8 runs] and the viability, T/C (compound 10 µM) was 3.58% [middle of 7 runs]. The IC50 (compound alone, run of 05/08/2023) was 475 nM [middle of 7 runs].
